Patent US8765730B2 (Hoffmann-La Roche Inc, priority 2010, dated 2014)

Target: T1, human GPBAR1 receptor (Homo sapiens, UniProt Q8TDU6)
T1 construct: expressed in transfected cells
T1 sequence (Q8TDU6 1-330): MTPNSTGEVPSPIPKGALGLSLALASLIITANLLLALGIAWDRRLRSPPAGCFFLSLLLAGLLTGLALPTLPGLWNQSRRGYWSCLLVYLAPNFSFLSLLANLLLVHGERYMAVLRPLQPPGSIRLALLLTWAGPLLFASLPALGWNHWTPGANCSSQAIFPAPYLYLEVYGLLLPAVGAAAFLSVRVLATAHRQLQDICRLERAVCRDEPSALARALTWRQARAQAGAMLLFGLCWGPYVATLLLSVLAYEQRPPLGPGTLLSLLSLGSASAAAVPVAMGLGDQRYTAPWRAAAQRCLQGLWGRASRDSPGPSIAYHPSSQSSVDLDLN
Assay: functional cAMP assay in CHO-dhfr(minus) cells expressing human GPBAR1 receptors
Format: cell-based
Settings: human EC50, functional cAMP assay, 30 min at 30° C.
Method in brief: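 Agonist cAMP read-out: stable GPBAR1 CHO-dhfr− clone, 30 min compound exposure at 30° C following 30 min IBMX (1 mM) preincubation in Krebs Ringer bicarbonate. Time-resolved energy-transfer detection gives EC50; parental CHO cells serve as counter-screen.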

Compound | EC50 [nM]
Cc1ccccc1[C@@H](C/C(=N\O)c1ccc(=O)n(C)c1)c1ccc(C2CCC(C(=O)O)CC2)cc1 (stereo partly drawn) [Example 487, (S,E)-4-(4-(3-(hydroxyimino)-3-(1-methyl-6-oxo-1,6-dihydropyridin-3-yl)-1-o-tolylpropyl)-phenyl)cyclohexanecarboxylic acid] | 656
Cc1cc(/C(CC(c2ccc(/C=C/C(=O)O)cc2)c2ccccc2C)=N\O)ccn1 (racemic) [Example 87, 3-{4-[3-[Hydroxyimino]-3-(2-methyl-pyridin-4-yl)-1-o-tolyl-propyl]-phenyl}-acrylic acid] | 241
Cc1ccccc1C(C/C(=N\O)c1cc(F)cc(F)c1F)c1ccc(Br)cc1 (stereo not shown) [Example 48, (E)-3-(4-Bromo-phenyl)-3-o-tolyl-1-(2,3,5-trifluoro-phenyl)-propan-1-one oxime] | 4360
Cn1cc(/C(CC(c2cccc(C(=O)NCCO)c2)c2ccc(Cl)cc2F)=N/O)ccc1=O (stereo not shown) [Example 320, (E)-3-(1-(4-Chloro-2-fluorophenyl)-3-(hydroxyimino)-3-(1-methyl-6-oxo-1,6-dihydro-pyridin-3-yl)propyl)-N-(2-hydroxyethyl)benzamide] | 3370
Cc1ccccc1[C@H](C/C(=N\O)c1ccc(=O)n(C)c1)c1ccc(C2CCNCC2)cc1 [Example 507, (R,E)-5-(1-(Hydroxyimino)-3-(4-(piperidin-4-yl)phenyl)-3-o-tolylpropyl)-1-methylpyridin-2(1H)-one] | 2370
Cc1cc(C(=NO)C(Cc2ccc(Br)cc2)c2ccccc2)cc(C)n1 (racemic) [Example 45, 3-(4-Bromo-phenyl)-1-(2,6-dimethyl-pyridin-4-yl)-2-phenyl-propan-1-one oxime] | 1160
Cn1cc(/C(CC(c2ccc(S(C)(=O)=O)cc2)c2cc(F)cc(F)c2)=N/O)ccc1=O (stereo not shown) [Example 351, (E)-5-(3-(3,5-Difluorophenyl)-1-(hydroxyimino)-3-(4-(methylsulfonyl)phenyl)propyl)-1-methylpyridin-2(1H)-one] | 452
Cc1ccccc1C(C/C(=N\O)c1cc(Cl)ccc1Cl)c1ccc(Br)cc1 (single isomer, unassigned; (+)) [Example 50, (+)-(E)-3-(4-Bromo-phenyl)-1-(2,5-dichloro-phenyl)-3-o-tolyl-propan-1-one oxime] | 769
CCOC(=O)c1ccc(-c2ccc([C@@H](C/C(=N\O)c3ccc(=O)n(C)c3)c3ccc(Cl)cc3F)cc2)s1 [Example 467, 5-{4-[(−)-1-(4-Chloro-2-fluoro-phenyl)-3-[(E)-hydroxyimino]-3-(1-methyl-6-oxo-1,6-dihydro-pyridin-3-yl)-propyl]-phenyl}-thiophene-2-carboxylic acid ethyl ester] | 348
Cc1cc(/C(C[C@@H](c2ccc(O)cc2)c2ccc(Cl)cc2C)=N/O)ccn1 [Example 365, (S)-3-(4-Chloro-2-methyl-phenyl)-3-(4-hydroxy-phenyl)-1-(2-methyl-pyridin-4-yl)-propan-1-one oxime] | 233
Cc1ccccc1[C@H](C/C(Cc1ccncc1)=N\O)c1ccc(-c2ccc(C(=O)O)cc2)cc1 [Example 298, 4′-{(R)-3-[(E)-Hydroxyimino]-4-pyridin-4-yl-1-o-tolyl-butyl}-biphenyl-4-carboxylic acid] | 411
CN(CCO)C(=O)c1cccc(C(C/C(=N\O)c2ccc(=O)n(C)c2)c2ccc(Cl)cc2F)c1 (stereo not shown) [Example 321, (E)-3-(1-(4-Chloro-2-fluorophenyl)-3-(hydroxyimino)-3-(1-methyl-6-oxo-1,6-dihydropyridin-3-yl)propyl)-N-(2-hydroxyethyl)-N-methylbenzamide] | 5200
Cc1cc(C(CC(c2cccc(-c3ccc(S(C)(=O)=O)cc3)c2)c2ccccc2C)=NO)ccn1 (racemic) [Example 104, 3-(4′-Methanesulfonyl-biphenyl-3-yl)-1-(2-methyl-pyridin-4-yl)-3-o-tolyl-propan-1-one oxime] | 578

Compounds with a lower EC50, results first:

EC50 [nM] | Compound
215 | Cc1cc(C(CC(c2ccc(-c3ccc(F)c(C(=O)O)c3)cc2)c2ccccc2C)=NO)ccn1 (racemic) [Example 113, 4-Fluoro-4′-[3-[hydroxyimino]-3-(2-methyl-pyridin-4-yl)-1-o-tolyl-propyl]-biphenyl-3-carboxylic acid]
179 | Cc1cc(Cl)ccc1C(C/C(=N\O)c1ccc(=O)n(C)c1)c1ccc(OC(C)C)c(F)c1 (stereo not shown) [Example 323, 5-{3-(4-Chloro-2-methyl-phenyl)-3-(3-fluoro-4-isopropoxy-phenyl)-1-[(E)-hydroxyimino]-propyl}-1-methyl-1H-pyridin-2-one]
173 | CCC(CC(=NO)c1ccncc1)c1cccc(Br)c1 (racemic) [Example 13, 3-(3-Bromo-phenyl)-1-pyridin-4-yl-pentan-1-one oxime]
153 | Cn1cc(/C(CC(c2ccc(-c3ccc(CC(=O)O)cc3)cc2)c2ccc(Cl)cc2F)=N/O)ccc1=O (single isomer, unassigned) [Example 462, {4′-[(+)-1-(4-chloro-2-fluoro-phenyl)-3-[(E)-hydroxyimino]-3-(1-methyl-6-oxo-1,6-dihydro-pyridin-3-yl)-propyl]-biphenyl-4-yl}-acetic acid]
42 | Cc1cc(Cl)ccc1C(C/C(=N\O)c1ccc(=O)n(C)c1)c1ccc(Oc2cccc(C(=O)O)c2)cc1 (stereo not shown) [Example 346, 3-{4-[1-(4-Chloro-2-methyl-phenyl)-3-[(E)-hydroxyimino]-3-(1-methyl-6-oxo-1,6-dihydro-pyridin-3-yl)-propyl]-phenoxy}-benzoic acid]
36 | Cc1ccccc1C(CC(=NO)c1ccncc1)c1ccc(N2CCOCC2)cc1 (racemic) [Example 41, 3-(4-Morpholin-4-yl-phenyl)-1-pyridin-4-yl-3-o-tolyl-propan-1-one oxime]
31 | Cn1cc(/C(CC(c2ccc(Br)cc2)c2ccc(Cl)cc2F)=N/O)ccc1=O (single isomer, unassigned; (-)) [Example 240, (−)-5-{3-(4-Bromo-phenyl)-3-(4-chloro-2-fluoro-phenyl)-1-[(E)-hydroxyimino]-propyl}-1-methyl-1H-pyridin-2-one]
30 | Cc1cc(Cl)ccc1C(C/C(=N\O)c1ccc(=O)n(C)c1)c1ccc(-c2ccc(C(=O)NCC(=O)O)cc2)cc1 (single isomer, unassigned; (-)) [Example 255, (−)-({4′-[1-(4-Chloro-2-methyl-phenyl)-3-[(E)-hydroxyimino]-3-(1-methyl-6-oxo-1,6-dihydro-pyridin-3-yl)-propyl]-biphenyl-4-carbonyl}-amino)-acetic acid]
30 | Cn1cc(/C(CC(c2ccc(-c3ccc(C(=O)O)cc3)cc2)c2ccc(F)cc2Cl)=N/O)ccc1=O (stereo not shown) [Example 412, (E)-4′-(1-(2-chloro-4-fluorophenyl)-3-(hydroxyimino)-3-(1-methyl-6-oxo-1,6-dihydropyridin-3-yl)propyl)biphenyl-4-carboxylic acid]
24 | Cc1cc(/C(CC(c2ccc(-c3ccc(C(=O)O)c(Cl)c3)cc2)c2ccc(Cl)cc2F)=N/O)ccn1 (stereo not shown) [Example 451, 3-Chloro-4′-[1-(4-chloro-2-fluoro-phenyl)-3-[(E)-hydroxyimino]-3-(2-methyl-pyridin-4-yl)-propyl]-biphenyl-4-carboxylic acid]
16 | Cc1cc(C(CC(c2ccc(-c3ccc(C(=O)O)c(F)c3)cc2)c2ccccc2C)=NO)ccn1 (racemic) [Example 112, 3-Fluoro-4′-[3-[hydroxyimino]-3-(2-methyl-pyridin-4-yl)-1-o-tolyl-propyl]-biphenyl-4-carboxylic acid]
14 | Cc1cc(/C(C[C@H](c2ccc(S(C)(=O)=O)cc2)c2ccccc2C)=N/O)ccn1 [Example 358, (R)-3-(4-Methanesulfonyl-phenyl)-1-(2-methyl-pyridin-4-yl)-3-o-tolyl-propan-1-one oxime]
14 | Cc1cc(/C(C[C@H](c2ccc(C3CCN(S(C)(=O)=O)CC3)cc2)c2ccccc2C)=N/O)ccn1 [Example 379, (R,E)-1-(2-methylpyridin-4-yl)-3-(4-(1-(methylsulfonyl)piperidin-4-yl)phenyl)-3-o-tolylpropan-1-one oxime]
10 | Cc1cc(F)ccc1C(C/C(=N\O)c1ccc(=O)n(C)c1)c1ccc(-c2ccc(C(=O)NCC(=O)O)cc2)cc1 (stereo not shown) [Example 258, ({4′-[1-(4-Fluoro-2-methyl-phenyl)-3-[(E)-hydroxyimino]-3-(1-methyl-6-oxo-1,6-dihydro-pyridin-3-yl)-propyl]-biphenyl-4-carbonyl}-amino)-acetic acid]
6 | Cc1ccccc1[C@H](C/C(=N\O)c1cc(Cl)ncc1F)c1ccc(-c2ccc(C(=O)O)cc2)cc1 [Example 292, 4′-{(R)-3-(2-Chloro-5-fluoro-pyridin-4-yl)-3-[(E)-hydroxyimino]-1-o-tolyl-propyl}-biphenyl-4-carboxylic acid]
5 | Cc1cc(F)ccc1[C@H](C/C(=N\O)c1ccc(=O)n(C)c1)c1ccc(Br)cc1 (single isomer, unassigned) [Example 404, (−)-5-{3-(4-Bromo-phenyl)-3-(4-fluoro-2-methyl-phenyl)-1-[(E)-hydroxyimino]-propyl}-1-methyl-1H-pyridin-2-one]
2 | Cc1cc(/C(C[C@H](c2ccc(N3CCC(CO)CC3)cc2)c2ccccc2C)=N/O)ccn1 [Example 269, (E,R)-3-[4-(4-Hydroxymethyl-piperidin-1-yl)-phenyl]-1-(2-methyl-pyridin-4-yl)-3-o-tolyl-propan-1-one oxime]
1 | Cc1cc(C(CC(c2ccc(C#CCO)cc2)c2ccccc2C)=NO)ccn1 (racemic) [Example 85, 3-[4-(3-Hydroxy-prop-1-ynyl)-phenyl]-1-(2-methyl-pyridin-4-yl)-3-o-tolyl-propan-1-one oxime]
